Assay results from patent US20060008512A1, “Composition and methods for improved animal performance” (priority 2004, published 2006).
Read-outs that look alike come from different tables or passages of the source.

Experiments:
broiler chickens = settings: 1 mg/kg of diet, 0 to 28 days of age, cited from earlier work
[1] = system: Hy-Line W-36 White Leghorn hens; settings: for Ovary Weight per hen / Oviduct Weight per hen: day 34
Excerpt: Experiment 3. […] The photoperiod serves as the primary environmental signal that regulates reproductive function in many avian species. Increasing the photoperiod promotes maturation of the gonads and reproductive tract, whereas reducing the photoperiod causes the gonads and reproductive tract to regress and molting to occur.

N[C@@H](Cc1cc(I)c(Oc2cc(I)c(O)c(I)c2)c(I)c1)C(=O)O [L-thyroxine, 3,5,3′,5′-tetraiodo-L-thyronine]
Serum thyroxine level (broiler chickens; first experiment (control 41.1)): 88.7 ng/mL | Serum thyroxine level (broiler chickens; second experiment (control 21.1)): 69.3 ng/mL | Hens molted ([1]; 20 mg T4/kg groups, either chamber): None of the hens | Time to significantly reduced egg production ([1]; 20 mg T4/kg, 17 hr light): ≤ 8 days | Body weight (BW) ([1]; 20 mg/kg of feed 12 d from day 13, 8 hr light, Day 12 (pre-molt)): 1492 g | Body weight change (% BWC) ([1]; 20 mg/kg of feed 12 d from day 13, 8 hr light, Day 22): −12.8% | Body weight (BW) ([1]; 20 mg/kg of feed 12 d from day 13, 8 hr light, Day 22 (end of molt)): 1301 g | Body weight change (% BWC) ([1]; 20 mg/kg of feed 12 d from day 13, 8 hr light, Day 34): −10.7% | Body weight (BW) ([1]; 20 mg/kg of feed 12 d from day 13, 8 hr light, Day 34 (final)): 1332 g | Body weight (BW) ([1]; 20 mg/kg of feed 12 d from day 13, 17 hr light, Day 12 (pre-molt)): 1572 g | Body weight change (% BWC) ([1]; 20 mg/kg of feed 12 d from day 13, 17 hr light, Day 22): −13.3% | Body weight (BW) ([1]; 20 mg/kg of feed 12 d from day 13, 17 hr light, Day 22 (end of molt)): 1363 g | Body weight change (% BWC) ([1]; 20 mg/kg of feed 12 d from day 13, 17 hr light, Day 34): −7.6% | Body weight (BW) ([1]; 20 mg/kg of feed 12 d from day 13, 17 hr light, Day 34 (final)): 1453 g | Ovary Weight per hen ([1]; 20 mg/kg of feed, 8 hr light): 7.91 g | Oviduct Weight per hen ([1]; 20 mg/kg of feed, 8 hr light): 18.64 g | Ovary Weight per hen ([1]; 20 mg/kg of feed, 17 hr light): 31.41 g | Oviduct Weight per hen ([1]; 20 mg/kg of feed, 17 hr light): 43.81 g | Hens molted fully ([1]; 40 mg T4/kg, 8 hr light, 7/12): 58% | Hens molted fully ([1]; 40 mg T4/kg, 17 hr light): 100% | Time to significantly reduced egg production ([1]; 40 mg T4/kg, 17 hr light): ≤ 6 days | Body weight (BW) ([1]; 40 mg/kg of feed 12 d from day 13, 8 hr light, Day 12 (pre-molt)): 1488 g | Body weight change (% BWC) ([1]; 40 mg/kg of feed 12 d from day 13, 8 hr light, Day 22): −17.9% | Body weight (BW) ([1]; 40 mg/kg of feed 12 d from day 13, 8 hr light, Day 22 (end of molt)): 1222 g | Body weight change (% BWC) ([1]; 40 mg/kg of feed 12 d from day 13, 8 hr light, Day 34): −12.6% | Body weight (BW) ([1]; 40 mg/kg of feed 12 d from day 13, 8 hr light, Day 34 (final)): 1300 g | Body weight (BW) ([1]; 40 mg/kg of feed 12 d from day 13, 17 hr light, Day 12 (pre-molt)): 1436 g | Body weight change (% BWC) ([1]; 40 mg/kg of feed 12 d from day 13, 17 hr light, Day 22): −18.0% | Body weight (BW) ([1]; 40 mg/kg of feed 12 d from day 13, 17 hr light, Day 22 (end of molt)): 1178 g | Body weight change (% BWC) ([1]; 40 mg/kg of feed 12 d from day 13, 17 hr light, Day 34): −14.8% | Body weight (BW) ([1]; 40 mg/kg of feed 12 d from day 13, 17 hr light, Day 34 (final)): 1224 g | Ovary Weight per hen ([1]; 40 mg/kg of feed, 8 hr light): 9.32 g | Oviduct Weight per hen ([1]; 40 mg/kg of feed, 8 hr light): 14.25 g | Ovary Weight per hen ([1]; 40 mg/kg of feed, 17 hr light): 3.82 g | Oviduct Weight per hen ([1]; 40 mg/kg of feed, 17 hr light): 8.03 g | Mortality ([1]; 20 and 40 mg T4/kg, 12 days): No mortality occurred | Time to significantly reduced egg production ([1]; 20 and 40 mg T4/kg, 8 hr light): ≤ 4 days
